In US7592308B2, “F3W variants of the lantibiotic mersacidin and its use” (priority 2004, dated 2009):
In brackets after ≈: the same amount, converted by molar mass. Like-named read-outs stand apart in the source and are kept apart here. Square brackets hold non-standard residues; d marks the D form. Ends that are not written are not given here. Dha = C=C(N)C(=O)O

Legend:
E. faecium 7131121 = assay: MIC, two-fold serial dilution in broth; format: cell-based, Enterococcus faecium; conditions: Table 8A; MHB + 50 μg/ml calcium; duplicate
Procedure: (§1) A selection of the variants produced in Example 1 above were tested further for activity against a range of bacteria. Minimum inhibitory concentrations (MICs) for all organisms with the exception of Streptococcus pneumoniae were determined by two-fold serial antibiotic dilutions in Mueller-Hinton broth (MHB) supplemented with 50 μg/ml calcium as calcium chloride dihydrate. Minimum inhibitory concentrations (MICs) for S. pneumoniae were determined by two-fold serial antibiotic dilutions in Brain Heart Infusion (BHI) broth supplemented with 50 μg/ml calcium as calcium chloride dihydrate. Antimicrobial agent stock solutions were prepared and stored according to NCCLS standard M7-A6.
(§2) Actively growing broth cultures were diluted to contain […] by adjusting to an absorbance of 0.2-0.3 at 600 nm, equivalent to the McFarland 0.5 standard. They were then diluted a further 1:100 in broth. The assays were performed in duplicate in sterile 96-well microtitre plates in a total volume of 200 μl (160 μl broth, 20 μl antibiotic, 20 μl inoculum) in a concentration range from 64 μg/ml to 0.06 μg/ml. The 12th well of the microtitre plate contained no antimicrobial agent. Vancomycin was used as a reference antibiotic for quality control. Plates were incubated aerobically, shaking, for 18-20 hours at 37° C. with the MIC defined as the lowest concentration of drug that produced no visible growth.

E. faecium 19579 = assay: MIC, two-fold serial dilution in broth; format: cell-based, Enterococcus faecium; conditions: Table 8A; MHB + 50 μg/ml calcium; duplicate
Procedure: as §1, §2

S. epidermidis 11047 = format: cell-based, Staphylococcus epidermidis; conditions: Table 8B; MHB + 50 μg/ml calcium; duplicate
Procedure: as §1, §2

E. faecalis 29212 = assay: MIC, two-fold serial dilution in broth; format: cell-based, Enterococcus faecalis; conditions: Table 8A; MHB + 50 μg/ml calcium; duplicate
Procedure: as §1, §2

S. aureus SH1000 = format: cell-based, Staphylococcus aureus; conditions: Table 8A; MHB + 50 μg/ml calcium; duplicate
Procedure: as §1, §2

S. aureus R33 = format: cell-based, Staphylococcus aureus; conditions: Table 8A; MHB + 50 μg/ml calcium; duplicate
Procedure: as §1, §2

S. pneumoniae R6 = format: cell-based, Streptococcus pneumoniae; conditions: Table 8B; BHI broth + 50 μg/ml calcium; duplicate
Procedure: as §1, §2

E. faecium 11.4103A = assay: MIC, two-fold serial dilution in broth; format: cell-based, Enterococcus faecium; conditions: Table 8B; MHB + 50 μg/ml calcium; duplicate
Procedure: as §1, §2

M. luteus 4698 = format: cell-based, Micrococcus luteus
Procedure: as §1, §2

E. coli SM1411 = assay: MIC, two-fold serial dilution in broth; format: cell-based; conditions: Table 8B; MHB + 50 μg/ml calcium; duplicate
Procedure: as §1
Actively growing broth cultures were diluted to contain […] by adjusting to an absorbance of 0.2-0.3 at 600 nm, equivalent to the McFarland 0.5 standard. They were then diluted a further 1:100 in broth. The assays were performed in duplicate in sterile 96-well microtitre plates in a total volume of 200 μl (160 μl broth, 20 μl antibiotic, 20 μl inoculum) in a concentration range from 64 μg/ml to 0.06 μg/ml. The 12th well of the microtitre plate contained no antimicrobial agent. Vancomycin was used as a reference antibiotic for quality control. […]

S. aureus COL MRSA = format: cell-based, Staphylococcus aureus
Procedure: (§3) MIC tests were performed with some of the variants of Example 2 on a range of other organisms. The results are shown in Tables 9 and 10 (figures in μg/ml): […]

S. aureus 1012-13 MRSA = format: cell-based, Staphylococcus aureus
Procedure: as §3

S. aureus SG511 = format: cell-based, Staphylococcus aureus
Procedure: as §3

S. aureus CS = format: cell-based, Staphylococcus aureus
Procedure: as §3

M. luteus = conditions: data of Szekat et al.; cited from earlier work
E. faecium 4147-1 = format: cell-based, Enterococcus faecium; conditions: 4147-1
Procedure: as §3

E. faecium 4147 VRE = format: cell-based, Enterococcus faecium; conditions: 4147 VRE
Procedure: as §3

S. pyogenes 16205 = format: cell-based, Streptococcus pyogenes
Procedure: as §3

S. pyogenes 13608 = format: cell-based, Streptococcus pyogenes
Procedure: as §3

| Compound | MIC E. faecium 7131121 (E. faecium 7131121) | MIC E. faecium 19579 (E. faecium 19579) | MIC S. epidermidis 11047 (S. epidermidis 11047) | MIC E. faecalis 29212 (E. faecalis 29212) | MIC S. aureus SH1000 (S. aureus SH1000) | MIC S. aureus R33 (S. aureus R33) | MIC S. pneumoniae R6 (S. pneumoniae R6) | MIC E. faecium 11.4103A (E. faecium 11.4103A) | MIC M. luteus 4698 (M. luteus 4698; Table 8B, MHB + 50 μg/ml calcium, duplicate) | MIC E. coli SM1411 (E. coli SM1411) | MIC M. luteus 4698 (M. luteus 4698; 4698) [µg/mL] | MIC S. aureus COL MRSA (S. aureus COL MRSA) [mg/L] | MIC S. aureus 1012-13 MRSA (S. aureus 1012-13 MRSA) [mg/L] | MIC S. aureus SG511 (S. aureus SG511) [mg/L] | MIC S. aureus CS (S. aureus CS) [mg/L] | MIC against M. luteus (M. luteus) [mg/L] | MIC E. faecium 4147-1 (E. faecium 4147-1) [mg/L] | MIC E. faecium 4147 VRE (E. faecium 4147 VRE) [mg/L] | MIC S. pyogenes 16205 (S. pyogenes 16205) [mg/L] | MIC S. pyogenes 13608 (S. pyogenes 13608) [mg/L] |
| --- | --- | --- | --- | --- | --- | --- | --- | --- | --- | --- | --- | --- | --- | --- | --- | --- | --- | --- | --- | --- |
| G9R: mersacidin variant (CTFTLPGGRGVCTLT[Dha]ECIC; thioether (positions not given here); not fully specified; UniProt P43683 49-68, looked up, variant G9R) | >64, >64 μg/ml | >64, >64 μg/ml | >64, >64 μg/ml | >64, >64 μg/ml | >64, >64 μg/ml | >64, >64 μg/ml | >64, >64 μg/ml |  |  |  |  |  |  |  |  |  |  |  |  |  |
| G10N: mersacidin variant (CTFTLPGGGNVCTLT[Dha]ECIC; thioether (positions not given here); not fully specified; UniProt P43683 49-68, looked up, variant G10N) | >64, >64 μg/ml | >64, >64 μg/ml | >64, >64 μg/ml | >64, >64 μg/ml | >64, >64 μg/ml | >64, >64 μg/ml | >64, >64 μg/ml |  |  |  |  |  |  |  |  |  |  |  |  |  |
| G10V: mersacidin variant (CTFTLPGGGVVCTLT[Dha]ECIC; thioether (positions not given here); not fully specified; UniProt P43683 49-68, looked up, variant G10V) |  | >64, >64 μg/ml |  | >64, >64 μg/ml | >64, >64 μg/ml | >64, >64 μg/ml |  | >64, >64 μg/ml | <4, <4 μg/ml |  |  |  |  |  |  |  |  |  |  |  |
| G9S: mersacidin variant (CTFTLPGGSGVCTLT[Dha]ECIC; thioether (positions not given here); not fully specified; UniProt P43683 49-68, looked up, variant G9S) | >64, >64 μg/ml | >64, >64 μg/ml | >64, >64 μg/ml | >64, >64 μg/ml | >64, >64 μg/ml | >64, >64 μg/ml | >64, >64 μg/ml |  |  |  |  |  |  |  |  |  |  |  |  |  |
| C=C1NC(=O)C2NC(=O)[C@H](CC(C)C)NC(=O)C(NC(=O)[C@@H]3CSC(C)C(NC(=O)[C@H](Cc4ccccc4)NC(=O)C4NC(=O)[C@@H](N)CSC4C)C(=O)N[C@@H](CC(C)C)C(=O)N4CCC[C@H]4C(=O)NCC(=O)NCC(=O)NCC(=O)NCC(=O)N[C@@H](C(C)C)C(=O)N3)C(C)SC[C@H](NC(=O)[C@H](CCC(=O)O)NC1=O)C(=O)N[C@@H]([C@@H](C)CC)C(=O)NC=CSC2C (stereo partly drawn) [Mersacidin, mersacidin] |  |  |  |  |  |  | <4, <4 μg/ml |  |  | >64, >64 μg/ml | 0.5 (≈ 0.274 µM) | 16 (≈ 8.76 µM) | 8 (≈ 4.38 µM) | 2 (≈ 1.1 µM) | 4 (≈ 2.19 µM) | 0.195 (≈ 0.107 µM) | 64 (≈ 35 µM) | 64 (≈ 35 µM) | 0.5 (≈ 0.274 µM) | 0.25 (≈ 0.137 µM) |
